From patent publication US20220047658A1, “TCM ADDITION AND SUBTRACTION PRESCRIPTION USED PREVENTION/TREATMENT OF METABOLIC SYNDROME AND COMPLICATIONS” (priority 2019, published 2022)

Tests used:
Assay type in all cases: in vivo
[1] = tested on: db/db mice; assay: Measurement of glycosylated hemoglobin (HbAlc) concentration; conditions: D29, once per day intragastric, RX-6 6 mg/kg, RX-12 12 mg/kg, MET 350 mg/kg, NOR 8.85%, FIG. 2
Text: Glycosylated hemoglobin (GHb) is a product hemoglobin in red blood cells, conjugated with saccharides in serum. GHb is formed via slow, persistent, and irreversible glycation; its content is dependent on blood glucose concentration, and exposure duration of blood glucose to hemoglobin, and independent of blood collection time, patients' fasting or non-fasting status, or insulin use or non-use, etc. Therefore, GHb may efficiently reflect blood glucose control in patients with diabetes mellitus in the past 1-2 month.
Test method: after animal are fasted, 20 μL of whole blood is collected and placed into an EP tube containing HbAlc diluent; the content of HbAlc is measured by a full-automatic analyzer. The specific method refers to the Instructions of the Kit.
To investigate TCM complex for prevention and treatment of type II diabetes mellitus in animal model, grade SPF BKS.Cg-Dock7m+/+Leprdb/J mice (referred to as db/db mice for short) were used to conduct a hypoglycemic experiment validation. The mice were allowed with free access to feed and water. […]
The concentration was measured on D29 after oral administration of the drug. The animals were fasted for 4-6 h, and then anesthetized by inhalation of isoflurane; […] of whole blood was collected from orbital venous plexus and placed into a EP tube containing HbAlc diluent; the content of HbAlc was measured by a full-automatic analyzer. […]

[2] = tested on: db/db mice; assay: Test for urine creatinine (diabetic nephropathy test); conditions: 29-d raise, MET 350 mg/kg, FIG. 6
Text: (§1) Overnight urine is collected and placed on crushed ice to test urine total protein, urine albumin, urine microalbumin, and urine creatinine.
(§2) To investigate TCM complex for prevention and treatment of type II diabetes mellitus in animal model, grade SPF BKS.Cg-Dock7m+/+Leprdb/J mice (referred to as db/db mice for short) were used to conduct a hypoglycemic experiment validation. The mice were allowed with free access to feed and water. The mice were assigned into 4 groups (4 mice per group), and were administered intragastrically with the complex, once per day. […] The animals of each group were orally administered with the sample to Week 4. Urine and blood were collected 4 week later.
(§3) The drugs in the drug groups included Poria, Semen Coicis, Rhizoma Dioscoreae, Semen Euryales, Semen Nelumbinis, Endothelium Corneum Gigeriae Galli, and Paeonia Lactiflora; the preparation method is that, Poria, Semen Coicis, Rhizoma Dioscoreae, Semen Euryales, Semen Nelumbinis, Endothelium Corneum Gigeriae Galli, and Paeonia Lactiflora were prepared and then compounded in a weight ratio of 1:1:1:1:1:1:2 to produce a powder. The obtained powder was diluted in a certain proportion to obtain RX−6 of the low dose (6 mg/kg) drug group, and RX-12 of the high dose (12 mg/kg) drug group. […]

[3] = tested on: db/db mice; assay: Measurement of fasting blood glucose level; conditions: MET 350 mg/kg, 2 d after oral administration, data not shown
Experimental: Fasting blood glucose means blood glucose level under the basal condition, reflecting the basal function of pancreatic islet B cells, and is an important criterion for diagnosis of diabetes mellitus. Oral glucose tolerance test means determination of fasting blood glucose after animals are fasted, and then animals are administered with the drug and administered intragastrically with glucose solution at the corresponding timepoints, and blood glucose is measured prior to intragastric administration of glucose, and 30 min, 60 min and 120 min after intragastric administration of glucose.
as §2, with “later. […]” for “later.”
After animals were fasted for 4-6 h, blood was collected at tail end to measure fasting blood glucose. Fasting blood glucose was measured for 4 times, i.e.: prior to grouping, and D2, D7, and D15 after administration of the drug.

[4] = tested on: db/db mice; assay: Quantitative test for UTP 24-h urine protein (diabetic nephropathy test); conditions: D29, RX-6 6 mg/kg, RX-12 12 mg/kg, MET 350 mg/kg, NOR 39.30 mg/DL, FIG. 3
Text: as §1, §2
as §3, with “powder.” for “powder. The obtained powder was diluted in a certain proportion to obtain RX−6 of the low dose (6 mg/kg) drug group, and RX-12 of the high dose (12 mg/kg) drug group.”
Quantitative test for 24 h urine protein (UTP24) is a urine test method in which 24-h discharged total urine is collected to conduct a […] test.

[5] = tested on: db/db mice; assay: Non-fasting blood glucose level; conditions: MET 350 mg/kg, D4 after oral administration
Experimental: The measured value of 2-H postprandial blood glucose test is the most valuable and may reflect reserve function of pancreatic islet B cells. Blood glucose is measured after animals eat feed.
as §2, with “later. […]” for “later.”
The animals were fed randomly and then blood was collected at tail end to measure non-fasting blood glucose level. Fasting blood glucose was measured for […], i.e.: prior to grouping, and 24 h, D4, D7, D15, D21, and D27 after administration of the drug.

[6] = tested on: db/db mice; assay: Test for mAlb urine microalbumin (diabetic nephropathy test); conditions: D29, RX-6 6 mg/kg, RX-12 12 mg/kg, MET 350 mg/kg, NOR 20.10 mg/L, FIG. 5
Text: as §1, §2, §3

## CN(C)C(=N)N=C(N)N [MET, metformin]
[1]
  glycosylated hemoglobin value (HbAlc): 6%
[2]
  urine creatinine increased than that in the negative control group NOR: 10.5 µM
[3]
  fasting blood glucose level compared with negative control group NOR: less than that in negative control group NOR
[4]
  UTP24 h urine protein: 39.65 mg/dL
[5]
  non-fasting blood glucose level compared with control: less than that in the positive control
[6]
  mAlb urine microalbumin content: 8.50 mg/L
